# Results from US11826402B2, “Combination therapy involving antibodies against claudin 18.2 for treatment of metastatic pancreatic adenocarcinoma” (Astellas Pharma Inc., priority 2013, dated 2023).
# How the values were obtained:
# [1] = test system: LVT pancreatic cancer cell lines; test: IMAB362-mediated ADCC assay, LVT pancreatic cancer cell lines and corresponding parental cell lines; format: cell-based, human; conditions: for ADCC EC50 / ADCC Max. lysis: at least 2 donors
# Experimental: For ADCC assays pancreatic cancer cell lines were transiently transfected with luciferase RNA. This luciferase RNA (pST1-luc2mut-2 hBgUTR-A121-EciI vector (pST1-109)) was produced with an ARCA cap and dissolved in H2O. RNA was stored in 22 μl aliquots at −80° C. For all pancreas cell lines the optimal electroporation conditions were determined resulting in highest transfection rates and viability of the cells. In each assay cells were detached with PBS/5 mM EDTA and 2.5×10^6 cells dissolved in 250 μl X-Vivo were mixed in ice-cold cuvettes with 10 μg RNA. Cells were immediately electroporated (GenePulser Xcell, Biorad) and resuspended in pre-warmed Assay-medium adjusting the cells to 5×10^5 cells/ml. Tested electroporation conditions were for all cell lines: • EP1: 250 V, 475 μF • EP2: 200 V, 300 μF • EP3: 150 V, 300 μF • EP4: 200 V, 400 μF • EP5: 250 V, 950 μF • Control: 0 V, 0 μF
# The viability of the cells was determined directly after electroporation using CASY or by staining cells with Trypan blue and determining the percentage of dead cells in the Neubauer chamber. Cells were seeded in quadruplicates in white 96-well plates (2.5×10^4 cells/well) and incubated for 24 h. Subsequently, luciferase activity was measured in a luminometer (Tecan Infinite200) after addition of luciferin mix for 90 min. Transfection was successful and consequently ADCC measurable, if RLU values >1.000 were obtained.
# Pancreatic cancer target cells were seeded two days in advance in flasks to obtain 80-90% confluent cultures on the day ADCC started. […] NUGC-4 sub 10cH11 subE10 Luci #2 cells (8000 cells/well) were seeded in addition as positive controls in all assays. Cells were cultivated for 4-6 h before addition of antibody and purified PBMCs. PBMCs were prepared from fresh human buffy coat obtained from healthy donors. About 3× 20-25 ml blood was diluted (1:2) with PBS and carefully layered on 4×15 ml Ficol-Paque Plus (GE Healthcare) in 50 ml Falcon tubes. Gradients were centrifuged (25 min, 700 g). After centrifugation, peripheral blood mononuclear cells (PBMC) were collected from the interphase, washed in PBS/2 mM EDTA, centrifuged (5 min, 468 g), again resuspended in PBS/2 mM EDTA and centrifuged (10 min, 208 g) to remove the platelets. The pellets were resuspended in 50 ml PBS/2 mM EDTA and cells were counted. PBMCs were centrifuged (5 min, 468 g) and resuspended in X-Vivo-15 culture medium at a concentration of 1.6×10^7 cells/ml for addition to the pancreas cells and 1.28×10^7 cells/ml for addition to the NUGC-4 sub 10cH11 subE10 Luci #2 cells.
# Of each dilution 25 μl was added in quadruplicates to the target cells. PBS without antibodies was added in the medium and lysis control wells. Subsequently, 25 μl PBMCs were added to each well (E:T ratio=40:1) and plates were incubated for 24 h±1 h at 37° C., 5% CO2.
# The next day, 10 μl 8% Triton X100/PBS solution was added to the lysis control wells and 10 μl PBS in all other wells. Finally, 50 μl freshly prepared luciferin stock solution was added (160 mM HEPES, 1×PBS, 3.84 mg/ml D-Luciferin (BD Biosciences)) to each well and plates were incubated for 80 min at RT in the dark. Luminescence resulting from the oxidation of […] by the luciferase of viable cells was measured using a microplate-reader (Infinite200, Tecan, Switzerland). Percentage of cellular cytotoxicity was calculated using the following formula: Specific killing (%)=100−[(RLUsample−RLUtriton)/(RLUmedium ctrl−RLUtriton)×100]
# ADCC analyses were also performed with LVT pancreatic cancer cell lines and their corresponding parental cell lines (FIG. 22B-F).
# CAPAN1 = test: IMAB362-mediated CDC assay (healthy human serum pool, luciferase); format: cell-based
# Experimental: (§1) CDC was performed as follows.
# Panc05.04 = test: as above; format: cell-based
# Experimental: as §1
# Suit2 = test: as above; format: cell-based
# Experimental: as §1
# YAPC = test: as above; format: cell-based
# Experimental: as §1
# KATO-III = test: Apoptosis by cross-linking of IMAB362 (TUNEL assay); format: cell-based, human; conditions: within 18-42 hours
# Experimental: (§2) The apoptotic assay based on DNA fragmentation was performed as follows. Treated cells (adherent and floating) were fixed in 70% icecold EtOH overnight. After washing, 10^6 fixed cells were incubated with terminal deoxynucleotidyl transferase enzyme (TdT) and FITC-dUTP for 90 min at 37° C. to label DNA breaks. Cells were rinsed, incubated in RNase A/propidium iodide in the dark for 30 min at room temperature to stain total DNA, then analyzed by flowvcytometry. Cell doublets and clumps were eliminated from the analysis by gating.
# (§3) The magnitude of apoptosis correlates with the dose of the antibody and level of target expression on the cancer cell. Treatment with gemcitabine leads to cell cycle arrest of tumor cells followed by apoptotic cell death.
# NUGC-4 = test: as above; format: cell-based, human; conditions: within 18-42 hours
# Experimental: as §2, §3
# DANG xenografts = test: Subcutaneous DANG xenograft treatment; format: in vivo, mice; conditions: low CLDN18.2 expressing DANG xenografts
# MiaPaCa-2-LVT = test: IMAB362-mediated CDC after cultivation with chemotherapeutic agents
# Experimental: Dose response curves of 2 independent assays. MiaPaCa2-LVT were cultivated in medium, Gem (10 ng/ml) or GemOx (10 ng/ml Gem+100 ng/ml Ox) for 70 h.
# An additional positive control was generated at the end of the reaction by addition of 0.8% Triton X100 to a second medium control well causing total lysis. […] All samples were prepared (200 μl each) at the same time in a 96 well deepwell dilution plate. Samples were taken 3 times from each well by reverse pipetting to generate the triplicates in the assay plates.
# To each well 10 μl PBS was added, except in the Triton-Lysis control wells. To each Triton-Lysis control well, 10 μl 0.8% Triton/PBS solution was added. Luciferin substrate solution was prepared (6114 μl Aqua bidest, 2496 μl HEPES (IM), 1998 μl 1×DPBS, 4992 μl D-Luciferin Stocksolution (12 mg/ml)). To each well 50 μl Luciferin substrate solution was added. […] Plates will be measured in a microplate reader. • Complement-dependent lysis was calculated using formula: Specific lysis (%)=100−[(RLUsample−RLUtriton)/(RLUHSCM−RLUtriton)×100]
# Modifications for testing the pancreatic cancer cell lines: • Pancreatic cancer cells were transfected with luciferase RNA using optimized conditions.
substance,measurement,setting,value
"IMAB362: chimeric IgG1 antibody directed against CLDN18.2, developed by Ganymed Pharmaceuticals AG",ADCC EC50,[1]; BxPC3 (ATCC),n.m.
same,ADCC Max. lysis,[1]; BxPC3 (ATCC),n.m.
same,ADCC EC50,[1]; BxPC3 (ECACC),n.m.
same,ADCC EC50,[1]; BxPC3 LVT,0.0477 ± 0.0191 mg/L
same,ADCC Max. lysis,[1]; BxPC3 LVT,90.6 ± 6.4%
same,ADCC EC50,[1]; CAPAN1-LVT,0.06503 ± 0.0351 mg/L
same,ADCC Max. lysis,[1]; CAPAN1-LVT,92.6 ± 5.5%
same,ADCC EC50,[1]; CAPAN1,n.m.
same,ADCC Max. lysis,[1]; CAPAN1,n.m.
same,ADCC EC50,[1]; DANG-LVT,0.0523 ± 0.0277 mg/L
same,ADCC Max. lysis,[1]; DANG-LVT,85.9 ± 11.7%
same,ADCC EC50,[1]; HPAC-LVT,0.1168 ± 0.1054 mg/L
same,ADCC Max. lysis,[1]; HPAC-LVT,76.2 ± 19.4%
same,ADCC Max. lysis,[1]; HPAC,0-22.2%
same,target dependence of ADCC,[1]; LVT cell lines versus CLDN18.2 negative parental cell lines,only CLDN18.2 positive target cells are killed
same,ADCC killing,[1]; LVT pancreas CA cell lines,killed upon addition of small amounts of antibody at high rates
same,ADCC EC50,[1]; MiaPaCa2-LVT,0.0234 ± 0.0123 mg/L
same,ADCC Max. lysis,[1]; MiaPaCa2-LVT,78.1 ± 6.0%
same,ADCC EC50,[1]; MiaPaCa2,n.m.
same,ADCC EC50,[1]; Patu8902-LVT,0.0492 ± 0.0862 mg/L
same,ADCC Max. lysis,[1]; Patu8902-LVT,74.1 ± 16.4%
same,ADCC EC50,[1]; Patu8902,n.m.
same,ADCC EC50,[1]; Suit2-LVT,0.0732 ± 0.0147 mg/L
same,ADCC Max. lysis,[1]; Suit2-LVT,81.2 ± 7.6%
same,ADCC EC50,[1]; Suit2,n.m.
same,ADCC Max. lysis,[1]; Suit2,n.m.
same,ADCC EC50,[1]; YAPC-LVT,0.0295 ± 0.0157 mg/L
same,ADCC Max. lysis,[1]; YAPC-LVT,91.5 ± 6.3%
same,ADCC EC50,[1]; YPAC,n.m.
same,ADCC Max. lysis,[1]; YPAC,n.m.
same,CDC EC50,CAPAN1,n.m.
same,CDC Max. lysis,CAPAN1,n.m.
same,complement-dependent lysis,CAPAN1; healthy human serum pool,not lysed
same,CDC EC50,Panc05.04,n.m.
same,CDC Max. lysis,Panc05.04,n.m.
same,complement-dependent lysis,Panc05.04; healthy human serum pool,not lysed
same,CDC EC50,Suit2,n.m.
same,CDC Max. lysis,Suit2,n.m.
same,complement-dependent lysis,Suit2; healthy human serum pool,not lysed
same,complement-dependent lysis,"YAPC; YAPC, healthy human serum pool",not lysed
same,CDC EC50,YAPC; YPAC,n.m.
same,CDC Max. lysis,YAPC; YPAC,n.m.
same,induction of apoptosis,KATO-III,induces direct apoptosis
same,induction of apoptosis,NUGC-4,induces direct apoptosis
same,growth inhibition compared to high CLDN18.2 expressing xenograft tumors,DANG xenografts,reduced
same,"max lyses (CDC), Gem treated versus medium",MiaPaCa-2-LVT; MiaPaCa-2-LVT treated with Gem,increase
same,EC50 for IMAB362 specific lyses (CDC),"MiaPaCa-2-LVT; MiaPaCa-2-LVT treated with Gem (10 ng/ml, 70 h)",4.677 mg/L
same,EC50 for IMAB362 specific lyses (CDC),MiaPaCa-2-LVT; medium cultivated MiaPaCa-2-LVT,7.665 mg/L
